Source: patent US6495584B1, “Use of 3-(1H-imidazol-4-ylmethyl)-indan-5-ol in the manufacture of a medicament for intraspinal, intrathecal or epidural administration” (Orion Corporation, priority 1998, dated 2002)
Where two headings read alike, the source gives them in different places.

Experiments:
[1] = physchem
Method: The hydrochloride salts of the above compounds were shaken for 90 minutes in a separatory funnel at room temperature with equal volumes (1:1, v/v) of an organic phase (water saturated 1-octanol) and an aqueous solution (0.1 M HCI or 67 mM phosphate buffer pH 7.4), separating the two phases. The quantitations of the amounts of the studied compounds were performed by the RP-HPLC (reverse phase high pressure liquid chromatography) technique. […] As a mobile phase, methanol: 15 mM phosphate buffer pH2 at the ratio 50:50 (v/v) was used.
The partition coefficient (P) is a ratio of the equilibrium concentrations of a solute in a lipophilic environment (1-octanol) and water (P=coct/cwater). The logarithm of the partition coefficient (logP) is used as a lipophilicity parameter for a neutral molecule. D is the partition coefficient measured at a pH where the molecules are partly or totally ionized.

[2] = system: rat; test: Tail-flick analgesia test; type: in vivo
Method: (§1) There were 8 rats in each group tested.
Tail-flick analgesia was tested by a tail-flick analgesy meter (Ugo Basile, Italy). The analgesia testing was done no earlier than four days after the catheterization. The rats were always habituated to the immobilization chambers that were used in the analgesia measurements. The tail of the rat was outside the chamber and it was placed on the heating spot of the apparatus. Thus, the hot infrared beam would hit the tail. When the rat reacted and moved the tail away from the beam, the analgesy meter automatically measured the latency of the tail-withdrawal. The tail-flick measurement was always repeated three times, one after another, to diminish the effect of a possible unspecific reaction. […] The maximal latency (cut-off time) was set to 5 seconds in order to prevent burns of the tail. The predrug tail-flick latencies were first measured, and then the rats were administered 10 μl of the drug solution by a Hamilton syringe. Immediately thereafter the catheter was washed with 10 μl of sterile saline, and the tip was sealed by a lighter. The analgesia was tested after 30 minutes from the administration of the drug by measuring tail-flick analgesia as described above.
The tail-flick analgesia data were represented as MPE% values (maximum possible effect %). The tail-flick latencies (mean of three measurements) were calculated as MPE% values as follows: (postdrug latency−predrug latency)/(cut-off time−predrug latency)×100%. The dose-response curves were drawn of the MPE% values, and the dose was on a logarithmic scale (see FIG. 1). […] 1.03 (San Diego, USA) software.
(§2) The analgesic activity and sedative effect after intravenous (to the tail vein) and subcutaneous administration were studied according to the methods described in Example 2.

[3] = in vivo; conditions: Sprague-Dawley, rat
Method: as §1
(§3) Sedative effects (effects on motor activity) were measured in a polypropylene animal cage (38×22×15 cm) with a transparent polypropylene lid by Photobeam Activity System (PAS, Cage Rack, San Diego Instruments, San Diego, USA). The system consists of 16 separate enclosures connected to a computer control unit. There were three photobeams in each enclosure. The enclosures surrounded the cage at the height of 5 cm. The breaking of beams was counted as locomotor activity.
as §2

[4] = system: rat; test: in vivo
Method: as §1, §3, §2

[5] = system: rat; conditions: Sprague-Dawley, in vivo
Description: (§4) The rats (Sprague-Dawley, B&K, Sollentuna, Sweden) were anaesthetized by midazolam and fentanyl-fluanisone combination anaesthesia and then chronically catheterized according to the method described by Yaksh and Rudy (Physiology & Behaviour 17,1031-1036, 1976). Briefly, the atlanto-occipital membrane of the spine (directly below the skull) was incised. A polyethylene catheter (PE10 Intramedic, USA) filled with sterile saline was carefully and slowly pushed 8 cm into the spinal cavity. The end of the catheter is known to reach the close proximity of the lumbar enlargement of the spine. The location of the end of the catheter was tested by administering 0.5 mg lidocain approximately 3 days after catheterization. If both hindlegs were paralyzed, the rat was used in the drug tests.
Effects on gastrointestinal motility were measured in separate animals as follows (the charcoal propulsion test). The rats (8/group) were fasted overnight and were randomized according to the latin square design. 30 minutes after the administration of the drugs, a 10% charcoal suspension in 0.25% Na-carboxy-methylcellulose was administered perorally by a gavage. […] The distance of the charcoal suspension from the pylorus in the intestine was measured. […] The ED50 value of the dose-response graph was determined by the Graph Pad Prism v. […]

[6] = system: rat; test: Motor coordination: rotarod treadmill; conditions: intrathecal, 15 minutes after injection
Description: as §4
(§5) The effect on motor coordination was evaluated by a rotarod treadmill for rats (Ugo Basile, Italy). It consists of four drums (diameter of 70 mm) separated by five flanges. The drums were adjusted to rotate 4 revolutions per minute. The rod was rotated against the direction of the rat, so it had to walk forward to stay on the rod. […]
(§6) Fifteen minutes after the drug injection, the rat was placed on the rotarod apparatus, and the falling time was measured. […] The dose-response curves were drawn on a logarithmic scale, and the ED50 values were determined graphically from these.

[7] = system: rat; conditions: Sprague-Dawley, in vivo, 15 min
Description: as §4, §5, §6

Row | Compound | logD at 90 min ([1]; pH 1) | logD at 90 min ([1]; pH 7.4) | ED50 ([2]; central, intrathecal (it), Table 2 result per rat multiplied by 3) | ED50 Analgesia (tail-flick test) ([2]; intrathecal, 30 minutes after administration) | ED50 ([2]; intravenous (iv)) | ED50 ([2]; subcutaneous (sc)) | ED50 at 10 min [3] | ED50 at 10 min ([3]; sc) | Sedation at an analgesic dose [4] | ED50 Inhib. of GI motility [5] | ED50 Loss of motor coordin. (decrease in rotarod performance) [6] | ED50 Loss of motor coordin. (decrease in rotarod performance) [7] | ED50 Analgesia (tail-flick test) ([2]; in vivo)
1 | Oc1ccc2c(c1)C(Cc1c[nH]cn1)CC2 (centres unmarked) [Compound A, 3-(1H-imidazol-4-ylmethyl)-indan-5-ol] | -0.69 | 1.91 | 0.0021 mg/kg | 0.7 µg/rat | > 0.03 mg/kg | > 0.3 mg/kg | 0.09 mg/kg | 0.08 mg/kg | not to induce sedation | 5.7 µg/rat | > 30 µg/rat | – | –
2 | Clc1cccc(Cl)c1N=C1NCCN1 [Compound B, clonidine, reference compound] | – | – | – | – | – | – | – | – | – | 3.5 µg/rat | – | >10 g/rat | –
3 | clonidine [Compound B, reference compound] | – | – | – | – | – | – | – | – | – | – | – | – | 6.4 µg/rat
